From US20120128657A1, “SYNTHETIC MACROCYCLIC COMPOUNDS AND METHODS FOR TREATING CANCER” (priority 2007, published 2012)

Assays:
4T1 breast tumor cells [1] = experiment: Cell proliferation assay; assay type: cell-based, mouse; settings: DMEM with 10% FBS, cells counted daily (FIG. 1)
Experimental: Cell Proliferation Assay: 4T1 breast tumor cells were trypsinized, resuspended in Dulbecco's Modified Eagle Medium (DMEM) with 10% FBS and counted. 5×10^4 cells were plated per well in a 6-well dish and grown in DMEM with 10% FBS. Each day of the assay, one well of each type of cell was trypsinized and the cells were counted.

[2] = test system: Bacillus subtilis (ATCC 49343); experiment: Modified disc diffusion antimicrobial assay; assay type: cell-based; settings: ATCC49343, B. subtilis, 50 μg/disk, 6 mm disks, 37° C., 18 hours
Experimental: Antimicrobial Assays Compounds were tested for antimicrobial activity against Escherichia coli (ATCC 8739) and Bacillus subtilis (ATCC 49343) and for antifungal activity against Candida albicans (ATCC 90027) using a modified disc diffusion assay. Briefly, agar plates seeded with suspensions of bacteria or fungi were prepared by adding 500 μL of a 24 h culture of bacteria to 100 mL of autoclaved Antibiotic Medium 2 (AB2) containing 1% agar and cooled to 55° C., or of fungi to Sabouraud Dextrose Agar (SDA) at 55° C. Seeded liquid agar (10 mL) was transferred immediately to square Petri dishes and allowed to cool for 1 h. Controls used for C. albicans, E. coli and B. subtilis included amphotericin B (25 μg), ampicillin (50 μg) and choloramphenicol (12.5 μg), respectively. Sterile disks (6 mm) containing control antibiotics or one of the macrocycles ([…]) were placed onto the agar and plates were incubated at 37° C. for 18 hours Inhibitory activity was measured by the zones of inhibition.

4T1 breast tumor cells [3] = experiment: Chamber cell migration assay (Boyden chambers); assay type: cell-based; settings: Mus musculus, 10% FBS in lower chamber, 4 h
Experimental: Chamber Cell Migration Assay: Cell migration was assayed in Boyden chambers [8.0 μm pore size polyethylene terephthalate membrane, FALCON cell culture insert (Becton-Dickinson)]. Cells were trypsinized and counted. 5-10×10^4 cells in serum free medium (300 μl) were added to the upper chamber and 500 μl of appropriate medium with 10% FBS were added to the lower chamber. Transwells were incubated for 4 h at 37° C. Cells on the inside of the transwell inserts were removed with a cotton swab, and cells on the underside of the insert were fixed and stained. Photographs of three random fields were taken and the number of cells counted to calculate the average number of cells that had transmigrated. Results in the form of IC50 values obtained from the chamber migration assay using 4T1 breast tumor cells for compounds 1-6 are presented in Table 1.

4T1 breast tumor cells [4] = experiment: In vitro wound-healing assay; assay type: cell-based, mouse; settings: 4T1 cells, medium with 10% FBS, overnight incubation at 37° C.
Experimental: In vitro Wound-Healing Assay: 4T1 breast tumor cells in medium containing 10% fetal bovine serum (FBS) were seeded into wells of 24-multiwell plates (Becton-Dickinson). After they grew to confluence, wounds were made with sterile pipette tips. Cells were washed with Phosphate Buffered Saline (PBS) and refreshed with medium with or without 10% FBS. After overnight incubation at 37° C., cells were fixed and photographed according to protocols described by Yang, S, and Huang, X.-Y. J. Biol. Chem. 2005, 280, 27130-27137; and Shan, D.; Chen, L.; Njardarson, J. T.; Gaul, C.; Ma, X.; Danishefsky, S. J.; and Huang, X.-Y. Proc. Natl. Acad. Sci. U.S.A. 2005, 102, 3772-3776, both the Yang and Shan references are incorporated herein by reference.

Row | IC50 (4T1 breast tumor cells [3]; unit given in μM) [nM] | SMILES | zone of inhibition at 50 µg/disc [2] [mm] | other results
1 |  | O=C1CC/C=C\CNC(=O)[C@]2(O)C[C@@H](O)[C@@H](O)[C@@H](C2)O1 [Compound 1] | 9 | 4T1 cell proliferation (4T1 breast tumor cells [1]): does not affect 4T1 cell proliferation; IC50 (4T1 breast tumor cells [3]; unit column prints nM): 77 ± 17 nM; closure of the wound (cell migration) (4T1 breast tumor cells [4]): prevented closure of the wound
2 | > 250000 | O=C1CC/C=C/CNC(=O)[C@]2(O)C[C@@H](O)[C@@H](O)[C@@H](C2)O1 [Compound 2] |  | 
3 | 525000 ± 163000 | O=C1CCCC/C=C\CNC(=O)[C@]2(O)C[C@@H](O)[C@@H](O)[C@@H](C2)O1 [Compound 3] | 8.5 | 
4 | 12000 ± 2900 | O=C1CCCC/C=C/CNC(=O)[C@]2(O)C[C@@H](O)[C@@H](O)[C@@H](C2)O1 [Compound 4] | 7.5 | 
5 | > 500000 | CC(C)(C)OC(=O)NC(Cc1ccccc1)C(=O)O[C@@H]1C[C@]2(O)C[C@@H](OC(=O)CCCC/C=C\CNC2=O)[C@@H]1O (stereo partly drawn) [Compound 5] |  | 
6 |  | CC(C)=CC(=O)O[C@@H]1C[C@]2(O)C[C@@H](OC(=O)CCCC/C=C\CNC2=O)[C@@H]1O [Compound 6] |  | IC50 (4T1 breast tumor cells [3]; unit column prints nM): 550 ± 189 nM
7 |  | CC1(C)S[C@@H]2[C@H](NC(=O)[C@H](N)c3ccccc3)C(=O)N2[C@H]1C(=O)O [ampicillin, reference compound] | 15 | 
